Paper PMC12010006, “Subnanomolar MAS-related G protein-coupled receptor-X2/B2 antagonists with efficacy in human mast cells and disease models” (Signal Transduction and Targeted Therapy, 2025)

Experiments:
MRGPRX2 [1] = molecular target: T1, MRGPRX2 (Homo sapiens, UniProt Q96LB1); experiment: TRUPATH Gαi1 dissociation assay, LN229 cells expressing MRGPRX2; assay type: cell-based; design: expressed in transfected cells; host or cells: LN229 human glioblastoma cells; plasmid pLXSN-MRGPRX2 (Addgene #213960); settings: 100 nM, preincubation
T1 sequence (Q96LB1 1-330): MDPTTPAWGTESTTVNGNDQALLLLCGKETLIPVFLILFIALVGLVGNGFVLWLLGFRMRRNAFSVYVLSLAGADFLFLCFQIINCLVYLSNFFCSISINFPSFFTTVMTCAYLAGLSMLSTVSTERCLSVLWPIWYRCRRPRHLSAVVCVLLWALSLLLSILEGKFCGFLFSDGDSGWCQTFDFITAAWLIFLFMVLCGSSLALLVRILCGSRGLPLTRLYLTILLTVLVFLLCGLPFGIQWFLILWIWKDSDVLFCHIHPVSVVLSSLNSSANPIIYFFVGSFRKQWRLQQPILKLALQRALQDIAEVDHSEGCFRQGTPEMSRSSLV
Experimental: Fig. 3 Biological characterization of PSB-172656. a Selectivity of PSB-172656 (100 nM) for MRGPRX2 over MRGPRX1, MRGPRX3, and MRGPRX4 measured in β-arrestin assays utilizing β-arrestin-CHO cells with recombinant expression of the respective receptor. MRGPRX1 was activated by BAM-22P (8.5 µM),[19] MRGPRX2 was activated by CST-14 (1 µM), MRGPRX3 was activated by PSB-20294 (10 µM), MRGPRX4 was activated by PSB-18061 (2.6 µM).[44] Data represent mean values ± SEM of 3-4 biological replicates, performed in duplicates. […] Data are means ± SEM of 3 biological replicates, in duplicates. Statistical significance was determined by one-way ANOVA (Tukey’s multiple comparison) test (ns P > 0.05). […] Data are means ± SEM of 3 biological replicates, performed in duplicates. e Shift assay to determine inhibition type of PSB-172656 versus CST-14. […] Extrapolated data were not used for analysis but only shown for a comprehensive view. f Schild plot for the effect of PSB-172656 on the concentration-response curves for CST-14. […]
To further investigate PSB-172656 signaling, direct activation of the relevant G protein subunits, Gαq and Gαi1,[32] was studied. This was assessed using G protein dissociation assays and LN229 cells stably overexpressing MRGPRX2 while transiently expressing the investigated G protein (Fig. 3c, d).[47]

MRGPRX2 [2] = molecular target: T1, MRGPRX2; experiment: β-hexosaminidase release, primary human skin mast cells; assay type: cell-based
Experimental: Finally, the effect of the MRGPRX2 antagonist PSB-172656 on MRGPRX2-mediated MC degranulation in primary human skin mast cells isolated from breast skin tissue was investigated. These cells were controlled by flow cytometry for CD117, FcεRI, and MRGPRX2 to ensure their purity (Supplementary Fig. S6), and their functionality was assessed using the MC degranulation β-hexosaminidase release assay (Fig. 6g).
MCs were isolated from breast skin tissue, which was sectioned into strips and digested overnight at 4 °C in 2.4 U/mL dispase type II (Fisher Scientific). […] The purity of the MC cultures was assessed by flow cytometry for CD117 and FcεRI (Miltenyi) and exceeded 95%. […]
For β-hexosaminidase release assays, MCs were fed the day before stimulation with the medium. […] The reaction was stopped by adding 100 µL of sodium carbonate buffer (pH 10.7), and fluorescence was measured at 460 nm and excitation at 355 nm for 0.1 s. The percentage of β-hexosaminidase release was calculated as: […] × 100. […]

CCc1c(C(C)C)[nH]c2nc3cc(F)c(F)cc3n2c1=O [Compound 24, 3-ethyl-7,8-difluoro-2-isopropylbenzo[4,5]imidazo [1,2-a] pyrimidin-4(1H)-one]
inhibition of CST-14-induced Gαi1 dissociation (MRGPRX2 [1]): completely inhibited | inhibition at 1.25 µM (MRGPRX2 [2]; lowest tested concentration 1.25 µM, versus CST-14, read-out: inhibition of β-hexosaminidase release in human skin MCs): > 50% | effect on MC degranulation in primary human skin mast cells (MRGPRX2 [2]; versus CST-14 (1 µM)): inhibited MC degranulation in response to CST-14 exposure (1 µM) in a concentration-dependent manner
